The assay has as its target BACE1 (Homo sapiens (Human), UniProt P56817). Put plainly: Activity assay: inhibitory activity against the enzyme BACE1. It counts as biochemical. To be noted: 10 doses, 3-fold serial dilution starting from 10 μmol/L, singlet. How it is done:
The activity assay for the compound of each example was carried out in this experimental example, and the detailed test method was as follows:
1. The test compound was formulated as […] solution in dimethylsulfoxide;
2. Starting from 10 μmol/L, by 3-fold serial dilution, the inhibitory activity of each compound against the enzyme was tested in singlet state at 10 doses;
3. IC50 values of test compounds were finally obtained.
Sequence of BACE1 (P56817 46-501): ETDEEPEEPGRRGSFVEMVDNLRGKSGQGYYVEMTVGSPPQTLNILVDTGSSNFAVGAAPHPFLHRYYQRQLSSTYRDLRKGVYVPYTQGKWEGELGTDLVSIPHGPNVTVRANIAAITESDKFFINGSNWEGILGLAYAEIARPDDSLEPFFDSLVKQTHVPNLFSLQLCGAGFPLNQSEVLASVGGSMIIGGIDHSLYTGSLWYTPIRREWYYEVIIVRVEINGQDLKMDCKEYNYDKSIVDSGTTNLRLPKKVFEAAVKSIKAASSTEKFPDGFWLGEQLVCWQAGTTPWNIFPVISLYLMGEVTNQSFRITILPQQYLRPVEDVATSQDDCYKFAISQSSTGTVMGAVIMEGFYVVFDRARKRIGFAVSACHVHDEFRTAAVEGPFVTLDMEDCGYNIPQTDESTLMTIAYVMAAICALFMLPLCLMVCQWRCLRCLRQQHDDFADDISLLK
Compound `C[C@H]1C[C@@]2(F)CSC(N)=N[C@@]2(c2cc(N)ccc2F)CO1` [Example 7, (4aS,6S,8aS)-8a-(5-amino-2-fluorophenyl)-4a-fluoro-6-methyl-4,4a,5,6,8,8a-hexahydropyrano[3,4-d][1,3]thiazin-2-amine] had an IC50 of 5870 nM.

Take `C[C@H]1C[C@@]2(F)CSC(N)=N[C@@]2(c2cc(NC(=O)c3ccc(Cl)cn3)ccc2F)CO1` [Example 11, N-(3-((4aS,6S,8aS)-2-amino-4a-fluoro-6-methyl-4,4a,5,6,8,8a-hexahydropyrano[3,4-d][1,3]thiazin-8a-yl)-4-fluorophenyl)-5-chloropicolinamide]: the IC50 was determined as 172 nM. The same measure for `COc1cnc(C(=O)Nc2ccc(F)c([C@]34CO[C@@H](C)C[C@@]3(F)CSC(N)=N4)c2)cn1` [Example 12]: 150 nM; for `COc1cnc(C(=O)Nc2cccc([C@]34CO[C@@H](C)C[C@@]3(F)CSC(N)=N4)c2)cn1` [Example 14, N-(3-((4aS,6S,8aS)-2-amino-4a-fluoro-6-methyl-4,4a,5,6,8,8a-hexahydropyrano[3,4-d][1,3]thiazin-8a-yl)phenyl)-5-methoxypyrazin-2-carboxamide]: 130 nM; for `Cc1cnc(C(=O)Nc2cccc([C@]34CO[C@@H](C)C[C@@]3(F)CSC(N)=N4)c2)cn1` [Example 15, N-(3-((4aS,6S,8aS)-2-amino-4a-fluoro-6-methyl-4,4a,5,6,8,8a-hexahydropyrano[3,4-d][1,3]thiazin-8a-yl)phenyl)-5-methylpyrazin-2-carboxamide]: 225 nM.

Broadly, the IC50 is the midpoint of a concentration-inhibition curve.

Source of the values: patent US10889595B2, “[1,3]thiazin-2-amine compound, application, and pharmaceutical composition” (TETRANOV PHARMACEUTICAL CO., LTD., priority 2016, dated 2021).
